System: rats with lethal hemorrhagic shock
Experiment: Intravenous PHDi in lethal hemorrhagic shock, fixed-volume hemorrhage 65% EBV, FWB at 60 min (FIG. 7-10)
Format: in vivo, Sprague-Dawley rats
Experimental: For the experiments in this disclosure, fixed-volume hemorrhage (65% estimated blood volume (EBV)) was performed in isoflurane anesthetized Sprague-Dawley rats. In this model, the initial 40% of total volume of hemorrhage was performed by continuous blood draw using syringe pump within first 2 min, followed by manually repeatedly drawing 1.5 ml of whole blood every 2 min at 10 min, and 1 ml of whole blood every 3 min thereafter until achieving the targeted volume of hemorrhage, and thus 40% bleeding occurs within the first 2 minutes (fast hemorrhage), another 40% between 2-10 minutes, and the rest 20% between 10-22 minutes (slow hemorrhage).
Then, the animals were treated with 500 u L PHDi (MK-8617 at 1 mg/ml, in a dissolvent composed of 5% DMSO, 10% PEG 400, and 85% normal saline, average dose at 1.24±0.07 mg/kg) or vehicle (n=13 each) intravenously at 20 min after hemorrhage. At 60 min after hemorrhage, surviving animals were resuscitated with fresh whole blood (FWB, 20% EBV) using shed blood collected at 2 min after hemorrhage. The 60 min- or 4 hour survivability was analyzed
For the measurement of metabolites (lactate and HCO3) and ATP, blood samples were harvested at time point 0 (baseline), 20 minutes (prior to PHDi), 60 minutes (prior to fresh whole blood (FWB)), and 240 minutes after polytrauma/hemorrhage.

In the case of COc1ccc(C(NC(=O)c2cnc(-c3cccnn3)nc2O)c2ccc(OC)cc2)cc1 [MK-8617, N-[Bis(4-methoxyphenyl)methyl]-4-hydroxy-2-(pyridazin-3-yl)pyrimidine-5-carboxamide], the MAP (10 min after treatment, i.v. 1.24±0.07 mg/kg at 20 min after hemorrhage, vehicle 31.3±1.1, p=0.02) is reported as 35.9±1.2 mmHg, the “MAP after whole blood resuscitation (FWB)” value (PHDi treated animals, FWB at 60 min) is reported as “partial restoration of MAP” and the time to death (acute administration) is reported as “extends the time to death”. For the same compound, the “reduction in the elevation of lactate as compared with vehicle” value (at 60 min) was “about 30%”, the “lactate after whole blood resuscitation” value (at 4 hr after transfusion) was “reduced lactate” and the 60 min survivability (n=13, vehicle 15%, p=0.03) was 62%. For the same compound, the “prothrombin time (PT)” value (surviving animals at 60 min and 4 hours followed by whole blood resuscitation) was “significantly elevated” and the “animals surviving for 4 hours after hemorrhage among those that received whole blood resuscitation” value (vehicle 1 of 2, p=0.036) was 6 of 8.
